Data published in article PMC3944389, “Differential Neuroprotective Effects of 5′-Deoxy-5′-Methylthioadenosine” (PLoS ONE, 2014).
Marks after values point to notes of the source that are not given here.

Legend:
[1] = tested on: primary rat oligodendrocyte (OL) cultures; experiment: AMPA excitotoxicity in primary oligodendrocytes, calcein-AM viability; assay type: cell-based; conditions: MTA 100 and 300 µM pre-incubated 15 min, viability 24 h after AMPA
Description: Primary rat oligodendrocyte (OL) cultures were derived from the optic nerve of 12-day-old Sprague-Dawley rats, as described previously. Cells were seeded onto 12 mm diameter coverslips coated with poly-D-lysine (10 µg/ml) in 24-well plates at a density of 5×10^3 cells per well. The cells were maintained at 37°C in 5% CO2 and in a chemically defined medium. After 2–4 days in vitro, the cultures were composed of at least 98% O4/galactocerebroside-positive (O4/GalC) cells, while the majority of the remaining cells were stained with antibodies against glial fibrillary acidic protein (GFAP). No A2B5^+ or microglial cells were detected in these cultures.
For a-amino-3-hydroxy-5-methyl-4-isoxazolepropionic acid (AMPA) assays in primary rat OLs, cells were pre-incubated with MTA (100 µM and 300 µM) for 15 min and then exposed to AMPA (10 µM) for an additional period of 15 min. Cell viability was assessed with calcein-AM (Invitrogen) 24 h after application of AMPA, and the number of survival cells on each coverslip was detected by their fluorescence (515 nm filter) and quantified.

[2] = Parallel artificial membrane permeability assay (PAMPA), BBB model, passive diffusion; assay type: in vitro ADME
Description: The PAMPA assay was used to determine the capacity of compounds to cross a blood brain barrier (BBB) model by passive diffusion, measuring the effective permeability of the compounds at an initial concentration of 200 µM. The buffer solution was prepared from a concentrated commercial solution (Pion, Billerica, MA, US) according to the manufacturer's instructions and the pH was adjusted to 7.4 with 0.5 M NaOH. The compound of interest was dissolved in the buffer solution (200 µM), the PAMPA sandwich was separated and the donor well was filled with 195 µL of the compound of interest. The acceptor plate and donor plate were brought together, with the underside of the membrane in contact with the buffer. An 4 µL aliquot of the phospholipid mixture (20 mg/ml) in dodecane was added to the filter of each well, and then 200 µL of buffer solution was added to each acceptor well. The plate was covered and incubated for 4 h at RT in a saturated humidity atmosphere with agitation and with 25 µm of an unstirred water layer in the Gut-Box (Pion). After 4 h, a 150 µL/well sample from the donor plate and a 150 µL/well sample from the acceptor plate were transferred to HPLC vials. Then, 100 µL from acceptor well, 5 µL from the donor well and 5 µL from the t0 samples were injected into an HPLC reverse-phase symmetry C18 column (150 mm×4.6 mm×5 µm, 100 Å; Waters). Transport was confirmed by HPLC mass spectrometry and matrix-assisted laser desorption/ionization time-of-flight (MALDI-TOF) spectrometry to ensure the compound had maintained its integrity. The phospholipid mixture used was a porcine polar brain lipid extract composed of 12.6% phosphatidylcholine (PC), 33.1% phosphatidylethanolamine (PE), 18.5% phosphatidylserine (PS), 4.1% phosphatidylinositol (PI), 0.8% phosphatidic acid and 30.9% of other compounds.

[3] = tested on: rat mixed astrocyte-neuron cultures; experiment: NMDA-induced caspase 3 activation in mixed astrocyte-neuron cultures; assay type: cell-based; conditions: pre- or co-treatment; MTA 250 µM, MK-801 10 µM; 300 µM NMDA
Description: Finally, to prepare neuron-astrocyte co-cultures, neurons were resuspended in B27 Neurobasal medium plus 10% of foetal bovine serum (FBS) and then seeded onto a monolayer of astrocytes in 24-well plates at a density of 1–2×10^5 cells per well, the astrocytes having been prepared beforehand, as described elsewhere. One day later, the medium was replaced with B27-Neurobasal plus 10% FBS medium, and the cells were maintained at 37°C in 5% CO2. The cultures were used 8–9 days after plating. Neurons and astrocytes were identified with antibodies against microtubule-associated protein-2 and GFAP, respectively.
To assay N-methyl–D-aspartate (NMDA) excitotoxicity, primary cultures were seeded in 24-well plates at 15×10^4 cells/well, cultured for 7 days in vitro, and treated for different times with the vehicle alone (dimethyl sulfoxide (DMSO) 1%), NMDA (300 µM), NMDA (300 µM) + MTA (250 µM) or NMDA (300 µM) + MK-801, a NMDA receptor antagonist (10 µM). […] Caspase 3 activity was measured in these lysates one hour after the NMDA addition.
Cortical neurons, or mixed cortical neurons and glia, were seeded in poly-L-lysine-coated 6-well culture plates during 7 days in vitro before start the set of experiments. […] The extracts were then centrifuged at 5,000×g for 10 min at 4°C and the protein content was determined by the BCA protein assay. […]

With 5′-deoxy-5′-methylthioadenosine [MTA] the “protection of OLs against AMPA toxicity (calcein-AM)” value [1] was “fully protected”, the Membrane retention [2] was “negligible” and the “effective permeability in PAMPA (in words)” value [2] was “low to intermediate effective permeability”. For the same substance, the “% Membrane retention” value ([2]; 200 µM, pH 7.4, 4 h at RT) was 0%, the “Pe x 10^−6 (cm/s)” value ([2]; 200 µM, pH 7.4, 4 h at RT) was 0.15 ^* x 10^−6 cm/s and the “caspase 3 activation induced by NMDA” value [3] was “reverted to basal levels”.
